pIC50: −log10 of the molar value. Ends that are not written are not given here. Peptide text beside a SMILES is read from it. * marks the point of attachment. X1 = CC(C)C[C@@H](CN[C@@H](CCCNC(=N)N)C(=O)N[C@@H](Cc1ccccc1)C(N)=O)N*
Experiments:
[1] = target: receptor preparation (membrane fraction of Ascaris suum body wall muscle), AF2 binding sites; assay: Displacement of radioactive AF2 ([125I]AF2) in a receptor binding assay
Protocol: Adult female Ascaris suum, swine intestinal parasites, are collected in an abattoir after their removal from the intestine using pressurized water. Healthy specimens over 25 cm are selected, rinsed and placed in Ascaris Ringer's Solution (ARS: 4 mM NaCl, 5.9 mM CaCl2, 4.9 mM MgCl2, 5 mM Tris (C4 H11 NO3), 125 mM NaC2 H3 O2, 24.5 mM KCl, pH=7.4) at 37° C. Specimens are placed in a thermos filled with 37C Ascaris Ringer's solution and immediately air shipped to our laboratory. Upon arrival they are placed in fresh ARS (changed daily) and maintained at 37° C. for up to 3-4 days prior to use.
Ascaris suum body wall tissue (muscle) is dissected out by pinning each specimen in a dissection tray, opening the worm along its entire length at the lateral line with a scalpel, removing the intestine and ovaries and then scraping the muscle from the cuticle. One worm yields approximately 1.0 g tissue. Tissue collected is flash frozen in liquid nitrogen and stored at -80° C. until needed.
Membrane suspension for the binding assay is prepared as follows. […]
Each replicate is one well of a standard 96-well plate and has a volume of 200 μl containing 15 ug protein (preparation described above). […] The plate is shaken on a rotary shaker for 2 hours and then counted on a Top Count® scintillation counter. […]

A. suum muscle strips = details: cited from earlier work; for Threshold Concentration (ND class): highest concentration 10 μM; for Threshold Concentration: lowest tested concentration that detectably altered tension and/or contractile activity in at least half the strips
[2] = tested on: innervated Ascaris suum muscle preparation; assay: Potency evaluation bioassay: muscle tension and contractile frequency of innervated Ascaris suum muscle preparation; details: for Tension: 1 nM peptide, mean
Protocol: AF2 and iodinated AF2 were evaluated in a bioassay using an innervated Ascaris suum muscle preparation and potency was estimated by measuring the physiological effects of the peptides on A. suum muscle tension and contractile frequency.
An adult female was bisected transversely just anterior to the oviduct. A 2 cm segment was obtained anterior from the initial cut and that section was placed immediately under 37° C. medium in a dissection chamber. Two muscle strips were then prepared from each segment. Strips were prepared by cutting the segment longitudinally along one lateral line, removing the gut and then severing the opposite lateral line. Steel wires, 4 cm long, 0.25 mm diameter, with terminal sharpened hooks, were inserted through the muscle strip approximately 3 mm and centered from each end. These hooks were used to suspend the muscle strip between an isometric force transducer and a stationary holdfast in a 37° C. water jacketed incubation chamber filled with suppressive Ascaris Ringer's Solution constantly bubbled with N2. The transducer was connected to a Gould chart recorder via a Gould Universal amplifier.
The muscle tension on each preparation was "normalized" to zero five minutes before the addition of a test compound or vehicle. Compounds or vehicles were introduced from stock solutions and assayed at a final concentration of 1 nM in replicate (n=6). […] Inhibition is manifested as a drop in baseline tension (compared to control), while excitation is defined as a marked rise in baseline tension, often superimposed with transient muscle contractions (spiking). In order to estimate the net change in muscle tension of these preparations, the midpoint of the spike was estimated visually. Muscle tension data were analyzed by analysis of variance.

Ascaris suum tissues = details: tritium on leucine moiety; cited from earlier work

Compound	Threshold Concentration (ND class) (A. suum muscle strips)	Threshold Concentration (A. suum muscle strips) [µM]	other results
CC(C)C[C@@H](CN[C@@H](CCCNC(=N)N)C(=O)N[C@@H](Cc1ccccc1)C(N)=O)NC(=O)[C@H](Cc1ccc(O)cc1)NC(=O)[C@H](CCC(=O)O)NC(=O)[C@H](Cc1c[nH]cn1)NC(=O)[C@@H](N)CCCCN [KHEYL*RFamide (reduced bond), KHEYL*RFamide] (H-KHEY-X1)			pIC50 ([1]; displacement of radioactive AF2): 7.70
ANEFIRF-NH2	ND ("ND" means no detectable effect at 10 μM)		
FIRFamide	ND ("ND" means no detectable effect at 10 μM)		
KAEFIRF-NH2	ND ("ND" means no detectable effect at 10 μM)		
KNAFIRF-NH2		0.1	
KNEAIRF-NH2		3.2	
KNEFARF-NH2		10	
KNEFIAF-NH2		10	
KNEFIRA-NH2	ND ("ND" means no detectable effect at 10 μM)		
KNEYIRF-NH2		3.2	
Lys-His-Glu-Tyr^--I -Leu-Arg-Phe-amide [Iodo AF2]			specific binding ([1]; radioligand in current embodiment of binding assay): > 80%; type of response of muscle tension ([2]; 1 nM): biphasic responses (short term inhibition followed by long term excitation); Tension ([2]; 5 min after peptide addition): -430 mg; Tension ([2]; 15 min after peptide addition): -403 mg; Tension ([2]; 30 min after peptide addition): -237 mg; Tension ([2]; 60 min after peptide addition): -437 mg; Spike amplitude ([2]; 1 nM, FIG. 1): significant increase
NEFIRF-NH2	ND ("ND" means no detectable effect at 10 μM)		
[^3 H]PF1: PF1 (Ser-Asp-Pro-Asn-Phe-Leu-Arg-Phe-NH2 ; SDPNFLRFamide) radiolabelled by exchanging a tritium atom for a hydrogen on the leucine moiety (SDPNFLRF-NH2; also: tritium label on Leu6)			specific binding (Ascaris suum tissues): 40%

From patent publication US5859188A, “Method for discovering novel anthelmintic compounds” (priority 1997, dated 1999)
